Experimental data reported in article PMC7320011, “Rationally designed ruthenium complexes for 1- and 2-photon photodynamic therapy” (Nature Communications, 2020).
Where two headings read alike, the source gives them in different places.

Key:
[1] = tested on: human glioblastoma astrocytoma (U373) cells;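 further: Resazurin-to-resorufin fluorescence viability readout, 8 h compound exposure then medium change, light dose 3.1 J cm^−2 at 480 nm or 9.5 J cm^−2 at 540 nm, analysed 40 h later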
Procedure: (§1) A total of 4 × 10^3 cells were seeded on 96-well plates and allowed to adhere overnight. The cells were treated with increasing concentrations of the sample diluted in cell media achieving a total volume of 200 μL. The cells were incubated with the sample for 8 h and, after this time, the medium refreshed. To study the phototoxic effect of the sample, the cells were exposed to 480 nm (spectral half-width: 20 nm, 10 min, 5.2 mW cm^−2, 3.1 J cm^−2) or 540 nm (spectral half-width: 30 nm, 40 min, 4.0 mW cm^−2, 9.5 J cm^−2) light using an Atlas Photonics LUMOS BIO irradiator. To study the dark cytotoxicity of the sample, the cells were not irradiated and the medium exchanged. The cells were grown for an additional 40 h at 37 °C. After this time, the medium was replaced with fresh medium containing resazurin with a final concentration of 0.2 mg mL^−1. The cells were incubated for 4 h and the amount of the fluorescent product resorufin determined (λex = 540 nm, λem = 590 nm) with a SpectraMax M2 Microplate Reader (Molecular Devices). The obtained data was analyzed with the GraphPad Prism software.

[2] = tested on: human cervical carcinoma (HeLa) cells; experiment: (Photo-)cytotoxicity on 2D cell monolayers, HeLa; type: cell-based; details: for IC50: 1-3 as chloride salts; for PI (480 nm): dark vs 480 nm; for PI (540 nm): dark vs 540 nm
Procedure: as §1

[3] = Two-photon absorption cross section; type: physicochemical; details: dichloromethane
Procedure: The two-photon absorption cross section spectra of the sample was determined upon direction comparison to Rhodamine B. The sample was irradiated with an OpoletteTM 355II (pulse width ≤ 100 fs, 80 MHz repetition rate, Spectra Physics Inc.) laser. The experimental excitation and detection conditions were conducted with negligible reabsorption processes, which could affect two-photon absorption measurements. The quadratic dependence of the two-photon induced luminescence intensity on the excitation power was verified at an excitation wavelength of 800 nm. The two-photon absorption cross section was calculated using the following equation:1 σ2,sample=σ2,reference×Φreference×creference×Isample×nsample/Φsample×csample×Ireference×nreference,
σ2 = two-photon cross section, Φ = luminescence quantum yield, c = concentration, I = integrated luminescence intensity, n = refractive index

[4] = tested on: noncancerous retinal pigment epithelium (RPE-1) cells
Procedure: as §1

[5] = tested on: human glioblastoma astrocytoma (U373) cells; experiment: (Photo-)cytotoxicity on 2D cell monolayers, U373; details: for PI (480 nm): U373, dark vs 480 nm; for PI (540 nm): U373, dark vs 540 nm; for IC50: 1-3 as chloride salts;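 on all read-outs here: Resazurin-to-resorufin fluorescence viability readout, 8 h compound exposure then medium change, light dose 3.1 J cm^−2 at 480 nm or 9.5 J cm^−2 at 540 nm, analysed 40 h later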
Procedure: as §1

[6] = tested on: noncancerous retinal pigment epithelium (RPE-1) cells; experiment: (Photo-)cytotoxicity on 2D cell monolayers, RPE-1; details: for PI (480 nm): RPE-1, dark vs 480 nm; for PI (540 nm): RPE-1, dark vs 540 nm; for IC50: 1-3 as chloride salts
Procedure: as §1

[7] = Emission and luminescence quantum yield; type: physicochemical; details: acetonitrile
Procedure: The absorption spectra of the sample was measured with a SpectraMax M2 Spectrometer (Molecular Devices). For the measurements of the emission, the sample was irradiated at 355 nm with a NT342B Nd-YAG pumped optical parametric oscillator (Ekspla). The emission was focused at right angle to the excitation pathway and directed to a Princeton Instruments Acton SP-2300i monochromator. The signal was detected with a XPI-Max 4 CCD camera (Princeton Instruments).
The sample was prepared in an acetonitrile solution with an absorption of 0.1 at 355 nm. The sample was irradiated at 355 nm with a NT342B Nd-YAG pumped optical parametric oscillator (Ekspla). The emission was focused at right angle to the excitation pathway and directed to a Princeton Instruments Acton SP-2300i monochromator. The signal was detected with a XPI-Max 4 CCD camera (Princeton Instruments). The luminescence quantum yields were determined by comparison with the reference [Ru(2,2′-bipyridine)3]Cl2 in acetonitrile (Φem = 5.9%)[58] applying the following formula:2 Φem,sample=Φem,reference×Freference/Fsample×Isample/Ireference×nsample/nreference^2, 3 F=1−10^-A. Φem = luminescence quantum yield, F = fraction of light absorbed, I = integrated emission intensities, n = refractive index, A = absorbance of the sample at irradiation wavelength.

Excited state lifetime = type: physicochemical; details: for τ air, excited state lifetime: air saturated acetonitrile; for τ degassed, excited state lifetime: degassed acetonitrile
Procedure: The sample was prepared in an air saturated as well as a degassed acetonitrile solution with an absorption of 0.2 at 355 nm. The sample was irradiated at 355 nm with a NT342B Nd-YAG pumped optical parametric oscillator (Ekspla). The emission was focused at right angle to the excitation pathway and directed to a Princeton Instruments Acton SP-2300i monochromator. The signal was detected with a R928 photomultiplier tube (Hamamatsu).

[8] = Singlet oxygen quantum yield, indirect evaluation (1O2 scavenger absorbance); type: physicochemical
Procedure: Indirect evaluation: measurement in acetonitrile: the sample was prepared in an air-saturated acetonitrile solution with an absorption of 0.2 at the irradiation wavelength, N,N-dimethyl-4-nitrosoaniline aniline (RNO, 24 µM) and imidazole (12 mM). Measurement in PBS buffer: the sample was prepared in an air-saturated PBS solution containing the complex with an absorption of 0.2 at the irradiation wavelength, N,N-dimethyl-4-nitrosoaniline aniline (RNO, 20 µM) and histidine (10 mM). The samples were irradiated for various time points with an Atlas Photonics LUMOS BIO irradiator. The absorption of the samples was constantly monitored with a SpectraMax M2 Microplate Reader (Molecular Devices). The difference in absorption (A0 − A) at 420 nm for the measurement in acetonitrile or at 440 nm for the measurement in PBS was determined. The difference in absorption was then plotted against the irradiation times and the slope of the linear regression calculated. The absorption of the sample was corrected with an absorption correction factor. The singlet oxygen quantum yields were calculated using the same formulas as used for the direct evaluation.

[9] = Singlet oxygen quantum yield, direct evaluation (1O2 phosphorescence); type: physicochemical
Procedure: Direct evaluation: the sample was prepared in an air-saturated acetonitrile or deuterated water solution with an absorption of 0.2 at 450 nm. The sample was irradiated at 450 nm with a mounted M450LP1 LED (Thorlabs), whose light was focused with aspheric condenser lenses. Using a T-Cube LED Driver (Thorlabs), the intensity of the irradiation was varied and monitored with an optical power and energy meter. The emission was focused at right angle to the excitation pathway and directed to a Princeton Instruments Acton SP-2300i monochromator. To cut off light at wavelengths shorter than 850 nm, a longpass glass filter was placed in front of the monochromator entrance slit. The signal was detected with an EO-817L IR-sensitive liquid-nitrogen cooled germanium diode detector (North Coast Scientific Corp.). The luminescence signal, centered at 1270 nm, was measured from 1100 to 1400 nm. The obtained data were analyzed upon plotting the integrated luminescence peaks against the percentage of the irradiation intensity. The slope of the linear regression was calculated and compared with the reference Rose Bengal (Φ = 76%)[59]. The absorption of the sample was corrected with an absorption correction factor. The singlet oxygen quantum yields were calculated using the following formula:4 Φsample=Φreference×Ssample/Sreference×Ireference/Isample, 5 I=I0×1−10^-A.
Φ = singlet oxygen quantum yield, S = slope of the linear regression of the plot of the areas of the singlet oxygen luminescence peaks against the irradiation intensity, I = absorption correction factor, I0 = light intensity of the irradiation source, and A = absorption of the sample at irradiation wavelength.

[10] = 480 nm, read-out: IC50 480 nm (10 min, 3.1 J cm-2)
[11] = 540 nm, read-out: IC50 540 nm (40 min, 9.5 J cm-2)
[12] = read-out: IC50 480 nm (10 min, 3.1 J cm-2), U373, 480 nm
[13] = read-out: IC50 dark, U373, dark
[14] = read-out: IC50 540 nm (40 min, 9.5 J cm-2), RPE-1, 540 nm
[15] = read-out: IC50 dark, RPE-1, dark

## C(=C\c1ccnc(-c2cc(/C=C/c3ccccc3)ccn2)c1)/c1ccccc1.C(=C\c1ccnc(-c2cc(/C=C/c3ccccc3)ccn2)c1)/c1ccccc1.C(=C\c1ccnc(-c2cc(/C=C/c3ccccc3)ccn2)c1)/c1ccccc1.F[P-](F)(F)(F)(F)F.F[P-](F)(F)(F)(F)F.[Ru+2] [compound 1]
[1]
  IC50: 83.1 µM
[2]; [10]
  IC50: 29.5 µM
[2]; [11]
  IC50: 48.7 µM
[2]
  PI (480 nm): > 3.4
  PI (540 nm): > 2.1
[2]; dark, read-out: IC50 dark
  IC50: > 100 µM
[3]
  σ2, 2P absorption cross section: 147 GM
[4]
  IC50: 30.9 µM
[5]
  PI (480 nm): > 1.9
  PI (540 nm): > 1.2
[5]; [12]
  IC50: 51.7 µM
[5]; [13]
  IC50: > 100 µM
[6]
  PI (480 nm): > 3.2
  PI (540 nm): > 3.2
[6]; [14]
  IC50: 31.7 µM
[6]; [15]
  IC50: > 100 µM
[7]
  Φem, luminescence quantum yield: 1.9%
  λem, emission maximum: 677 nm
Excited state lifetime
  τ air, excited state lifetime: 86 ns
  τ degassed, excited state lifetime: 385 ns
[8]
  Singlet oxygen quantum yield, Indirect 450 nm CH3CN: 66%
  Singlet oxygen quantum yield, Indirect 450 nm PBS: 5%
  Singlet oxygen quantum yield, Indirect 540 nm CH3CN: 61%
  Singlet oxygen quantum yield, Indirect 540 nm PBS: 3%
[9]
  Singlet oxygen quantum yield, Direct 450 nm CH3CN: 65%

## CN(C)c1ccc(/C=C/c2ccnc(-c3cc(/C=C/c4ccc(N(C)C)cc4)ccn3)c2)cc1.CN(C)c1ccc(/C=C/c2ccnc(-c3cc(/C=C/c4ccc(N(C)C)cc4)ccn3)c2)cc1.CN(C)c1ccc(/C=C/c2ccnc(-c3cc(/C=C/c4ccc(N(C)C)cc4)ccn3)c2)cc1.F[P-](F)(F)(F)(F)F.F[P-](F)(F)(F)(F)F.[Ru+2] [compound 2, [Ru((E,E′)-4,4′-Bis[p-(N,N-dimethylamino)styryl]-2,2′-bipyridine)3][PF6]2]
[1]
  IC50: 61.4 µM
[2]; [10]
  IC50: 29.4 µM
[2]; [11]
  IC50: 52.3 µM
[2]
  PI (480 nm): > 3.4
  PI (540 nm): > 1.9
[2]; dark, read-out: IC50 dark
  IC50: > 100 µM
[3]
  σ2, 2P absorption cross section: 2175 GM
[4]
  IC50: 38.4 µM
[5]
  PI (480 nm): > 2.0
  PI (540 nm): > 1.6
[5]; [12]
  IC50: 49.1 µM
[5]; [13]
  IC50: > 100 µM
[6]
  PI (480 nm): > 2.6
  PI (540 nm): > 2.0
[6]; [14]
  IC50: 49 µM
[6]; [15]
  IC50: > 100 µM
[7]
  Φem, luminescence quantum yield: > 0.1%
  λem, emission maximum: 709 nm
Excited state lifetime
  τ air, excited state lifetime: 48 ns
  τ degassed, excited state lifetime: 222 ns
[8]
  Singlet oxygen quantum yield, Indirect 450 nm CH3CN: 25%
  Singlet oxygen quantum yield, Indirect 450 nm PBS: 3%
  Singlet oxygen quantum yield, Indirect 540 nm CH3CN: 16%
  Singlet oxygen quantum yield, Indirect 540 nm PBS: 1%
[9]
  Singlet oxygen quantum yield, Direct 450 nm CH3CN: 18%
